Measurements as given in publication PMC3663124, “S-Adenosyl-S-carboxymethyl-L-homocysteine: a novel cofactor found in the putative tRNA-modifying enzyme CmoA” (Acta Crystallographica Section D: Biological Crystallography, 2013).

Target: T1, CmoA (Escherichia coli, UniProt P76290)
T1 construct: R100H versus P76290 (PCR mutation or strain difference); expressed in E. coli Rosetta pLysS (DE3); dimer; residues 19-247 (chain A) and 20-244 (chain B) modelled
Assay: X-ray crystal structure ([…] A); FT-MS of released ligand
Format: binding
Conditions: copurified from E. coli expression host; carboxymethyl carboxylate salt bridge to Arg199; putative active site

T1 sequence (P76290 whole entry R100H, the tested form may be a part): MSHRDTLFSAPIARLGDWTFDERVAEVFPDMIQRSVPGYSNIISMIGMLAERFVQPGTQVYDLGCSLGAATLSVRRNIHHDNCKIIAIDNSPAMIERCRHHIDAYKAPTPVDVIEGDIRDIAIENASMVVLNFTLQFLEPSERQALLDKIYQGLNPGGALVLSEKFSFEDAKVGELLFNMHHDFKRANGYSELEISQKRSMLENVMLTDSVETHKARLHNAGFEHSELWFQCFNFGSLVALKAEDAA

## Nc1ncnc2c1ncn2[C@@H]1O[C@H](C[S+](CC[C@H](N)C(=O)O)CC(=O)O)[C@@H](O)[C@H]1O (stereo partly drawn) [[(3S)-3-amino-3-carboxypropyl]{[(2S,3S,4R,5R)-5-(6-aminopurin-9-yl)-3,4-dihydroxyoxolan-2-yl]methyl}(carboxymethyl)sulfanium]
  X-ray crystal structure (1.73 A); FT-MS of released ligand: both molecules of CmoA contain the novel derivative S-adenosyl-S-carboxymethyl-L-homocysteine (SCM-SAH)
